From patent US4410541A, “Composite for improving lipid metabolism” (Nihon Nosan Kogyo K.K., priority 1981, dated 1983)

Assay: Animal Experiment 2: whole cholesterol in hypercholesterolemia rats (Zurkowski's method)
Type: in vivo, rats of Wistar descent
Details: male Wistar rats on cholesterol feed, five days; composite oral 75 μg monoiodohistidine/day/rat, contrast groups equal iodine amount; control group 335
Method: A test groups consisted of ten heads of male rats of Wistar descent, which weighed about 120 g. The test group was fed in a cage at 24±1° C. of temperature and at 50 to 60% of humidity. […] The composite to be tested was made from the yolk of egg of the egg-laying hens to which calcium iodate was fed. The composite was dissolved in distilled water, and then orally dosed to the rats by means of a stomach probe at the rate of 75 μg of monoiodohistidine per day per rat for five days in parallel with feeding of the cholesterol containing feed. The rats were caused to fast for a night after composite dosing was finished, and next morning blood was taken from fundus of the rat's eyes in order to measure the amount of whole cholesterol by Zurkowski's method.
A control group, a contrast group (1) and a contrast group (2) equally consisted of rats which got hypercholesterolemia by the same process as mentioned in the test group. While potassium iodide was dosed to the contrast group (1) so that the iodine amount would be equal to that of the test group, iodo-lecithin was dosed to the contrast group (2) so that the iodine amount would be equal to that of the test group. On the other hand, no iodine agent or compound was dosed to the control group. And, as to the rats of these groups, the amount of whole cholesterol was measured by the same method as mentioned in the test group.

[I-].[K+] [potassium iodide]
Amount of whole Cholesterol: 323 mg/dL

iodo-lecithin
Amount of whole Cholesterol: 325 mg/dL
